{
  "source": "patent US10196391B2",
  "about": "(Hoffmann-La Roche Inc., priority 2014, dated 2019)",
  "data": [
    {"system": "HBsAg", "assay": "HBsAg assay (CLIA) in HepG2.2.15 cells", "format": "cell-based, HBV", "conditions": "Hepatitis B virus, HepG2.2.15, read-out: IC50 (HBsAg assay)", "procedure,_shortened": "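HepG2.2.15 cells (1.5×10^4/well, duplicate) treated with three-fold compound dilutions, 1% DMSO final, DMSO as no-drug control. Secreted HBsAg in supernatant quantified semi-quantitatively by chemiluminescence immunoassay; IC50 is concentration reducing HBsAg 50% versus no-drug control.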", "units": {"IC50": "nM"}, "values": [
      {"smiles": "CS(=O)(=O)c1ccc(N2CCc3nc(-c4ccccn4)nc(O)c3C2)cc1", "note": "[Example 80, 6-(4-methylsulfonylphenyl)-2-(2-pyridyl)-3,5,7,8-tetrahydropyrido-[4,3-d]pyrimidin-4-one]", "IC50": 5940},
      {"smiles": "COc1cc(F)cc(N2CCc3nc(-c4ncccn4)ncc3C2)n1", "note": "[Example 111, 6-(4-fluoro-6-methoxy-2-pyridyl)-2-pyrimidin-2-yl-7,8-dihydro-5H-pyrido[4,3-d]pyrimidine]", "IC50": 362},
      {"smiles": "COc1cc(N2CCc3nc(-c4ncccn4)ncc3C2)cc(F)n1", "note": "[Example 112, 6-(2-fluoro-6-methoxy-4-pyridyl)-2-pyrimidin-2-yl-7,8-dihydro-5H-pyrido[4,3-d]pyrimidine]", "IC50": 553},
      {"smiles": "Clc1cc(Cl)nc(N2CCc3nc(-c4ncccn4)ncc3C2)c1", "note": "[Example 113, 6-(4,6-dichloro-2-pyridyl)-2-pyrimidin-2-yl-7,8-dihydro-5H-pyrido[4,3-d]pyrimidine]", "IC50": 161},
      {"smiles": "Clc1cc(N2CCc3nc(-c4ncccn4)ncc3C2)cc(Cl)n1", "note": "[Example 114, 6-(2,6-dichloro-4-pyridyl)-2-pyrimidin-2-yl-7,8-dihydro-5H-pyrido[4,3-d]pyrimidine]", "IC50": 1170},
      {"smiles": "COc1cc(Cl)cc(N2CCc3nc(-c4ncccn4)ncc3C2)n1", "note": "[Example 115, 6-(4-chloro-6-methoxy-2-pyridyl)-2-pyrimidin-2-yl-7,8-dihydro-5H-pyrido[4,3-d]pyrimidine]", "IC50": 352},
      {"smiles": "COc1cc(N2CCc3nc(-c4ncccn4)ncc3C2)cc(Cl)n1", "note": "[Example 116, 6-(2-chloro-6-methoxy-4-pyridyl)-2-pyrimidin-2-yl-7,8-dihydro-5H-pyrido[4,3-d]pyrimidine]", "IC50": 530},
      {"smiles": "COc1cc(F)cc(N2CCc3nc(-c4ncccn4)ncc3C2)c1", "note": "[Example 117, 6-(3-fluoro-5-methoxy-phenyl)-2-pyrimidin-2-yl-7,8-dihydro-5H-pyrido[4,3-d]pyrimidine]", "IC50": 157},
      {"smiles": "Fc1cc(OC(F)(F)F)cc(N2CCc3nc(-c4ncccn4)ncc3C2)c1", "note": "[Example 118, 6-[3-fluoro-5-(trifluoromethoxy)phenyl]-2-pyrimidin-2-yl-7,8-dihydro-5H-pyrido[4,3-d]pyrimidine]", "IC50": 4980},
      {"smiles": "c1cnc(-c2ncc3c(n2)CCN(c2nccs2)C3)nc1", "note": "[Example 119, 2-(2-pyrimidin-2-yl-7,8-dihydro-5H-pyrido[4,3-d]pyrimidin-6-yl)thiazole]", "IC50": 6080}
    ]},
    {"system": "HBV DNA", "assay": "HBV DNA assay (real-time qPCR) in HepG2.2.15 cells", "format": "cell-based", "conditions": "Hepatitis B virus, 144 h, extracellular HBV DNA, 6 days, read-out: IC50 (Anti HBV DNA production activity)", "protocol": "HepG2.2.15 cells (Acs et al. Proc Natl Acad Sci USA, 84, (1987), 4641-4), a constitutively HBV-expressing cell line were cultured in DMEM+Glutamax-I medium (Invitrogen, Carlsbad, Calif., USA), supplemented with 10% fetal bovine serum (Invitrogen) and G418 (Invitrogen) at a final concentration of 200 mg/L and maintained in 5% CO2 at 37° C.\nThe assay employs real-time qPCR (TaqMan) to directly measure extracellular HBV DNA copy number. HepG2.2.15 cells were plated in 96-well microtiter plates. Only the interior wells were utilized to reduce “edge effects” observed during cell culture, the exterior wells were filled with complete medium to help minimize sample evaporation. On the following day, the HepG2.2.15 cells were washed and the medium was replaced with complete medium containing various concentrations of a test compound in triplicate. 3TC was used as the positive control, while media alone was added to cells as a negative control (virus control, VC). Three days later, the culture medium was replaced with fresh medium containing the appropriately diluted drug. Six days following the initial administration of the test compound, the cell culture supernatant was collected, treated with pronase and then used in a real-time qPCR/TaqMan assay to determine HBV DNA copy numbers. Antiviral activity was calculated from the reduction in HBV DNA levels (IC50). […]", "units": {"IC50": "nM"}, "values": [
      {"smiles": "CS(=O)(=O)c1ccc(N2CCc3nc(-c4ccccn4)nc(O)c3C2)cc1", "note": "[Example 80, 6-(4-methylsulfonylphenyl)-2-(2-pyridyl)-3,5,7,8-tetrahydropyrido-[4,3-d]pyrimidin-4-one]", "IC50": 160}
    ]}
  ]
}
